Results reported in publication PMC6318789 (Journal of the American Chemical Society, 2015).

Molecular target: p300 (Homo sapiens, UniProt Q09472)
Assay type: binding

p300, sequence (Q09472 323-423): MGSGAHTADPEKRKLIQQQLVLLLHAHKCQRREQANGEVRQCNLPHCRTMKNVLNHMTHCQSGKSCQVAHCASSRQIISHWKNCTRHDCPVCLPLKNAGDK
p300, sequence (Q16665 786-826 partner): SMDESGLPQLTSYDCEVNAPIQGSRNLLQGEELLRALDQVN

IC50: ~75 µM
Compound: COc1ccc(C2(O)N=C3N=CC=C4c5ccccc5N=C2N43)cc1 (racemic) [compound 1, eudistidine A]
